Read-outs that look alike come from different tables or passages of the source.
Legend:
human p38 kinase alpha = molecular target: T1, human p38 kinase alpha (Homo sapiens, UniProt Q16539); experiment: p38 kinase in vitro assay, phosphorylation of biotinylated PHAS-I with gamma 32P-ATP; type: biochemical; settings: for inhibition at 1 µM / inhibition at 10 µM: read-out: P38 alpha kinase % inhib @ conc.
T1 construct: The coding region of the human p38a cDNA was obtained by PCR-amplification from RNA isolated from the human monocyte cell line THP.1; GST (N); made in house; host or cells: E. coli DH10B
In short: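 MKK6-activated human p38α phosphorylates biotinylated PHAS-I with γ-32P-ATP in 25 mM HEPES pH 7.5, 10 mM Mg acetate, 50 μM unlabeled ATP, 1% DMSO, 30 °C for 1 h or overnight. Compounds at 100–0.001 μM (10-fold steps, triplicate); substrate captured on streptavidin filter plates and counted by scintillation.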

TNF-α = experiment: LPS stimulation of TNF production by U937 cells; type: cell-based, human; settings: for inhibition at 1 µM / IC50: Homo sapiens; for inhibition at 1 µM: U-937, @ 1.0 uM, read-out: U937 Cell % inhib @ conc.; for U937 Cell % inhib @ conc.: @ 1.0 uM
Method: Fifty million cells in 100 ml media were induced to terminal monocytic differentiation by 24 hour incubation with 20 ng/ml phorbol 12-myristate 13-acetate (Sigma). The cells were washed by centrifugation (200×g for 5 min) and resuspended in 100 ml fresh medium. After 24-48 hours, the cells were harvested, centrifuged, and resuspended in culture medium at 2 million cells/ml.
Compounds were prepared as 10 mM stock solutions in DMSO and diluted in culture medium to yield a final DMSO concentration of 0.1% in the cell assay. LPS (E coli, 100 ng/ml final concentration) was then added at a volume of 0.02 ml. After 4 hour incubation at 37° C., the amount of TNF-α released in the culture medium was quantitated by ELISA. Inhibitory potency is expressed as IC50 (μM).
In vitro whole cell assay for measuring the ability of the compounds to inhibit TNF production in human U937 cells stimulated with LPS are shown in the column identified as: […]

[1] = read-out: P38 alpha kinase IC50
[2] = p38α in vitro, PHAS-I assay procedure, read-out: p38^1 IC50
[3] = U-937, LPS-stimulated U937 cells, read-out: U937 IC50
[4] = U-937, TNF production, LPS-stimulated human U937 cells, read-out: U937 Cell IC50

T1 sequence (Q16539 whole entry): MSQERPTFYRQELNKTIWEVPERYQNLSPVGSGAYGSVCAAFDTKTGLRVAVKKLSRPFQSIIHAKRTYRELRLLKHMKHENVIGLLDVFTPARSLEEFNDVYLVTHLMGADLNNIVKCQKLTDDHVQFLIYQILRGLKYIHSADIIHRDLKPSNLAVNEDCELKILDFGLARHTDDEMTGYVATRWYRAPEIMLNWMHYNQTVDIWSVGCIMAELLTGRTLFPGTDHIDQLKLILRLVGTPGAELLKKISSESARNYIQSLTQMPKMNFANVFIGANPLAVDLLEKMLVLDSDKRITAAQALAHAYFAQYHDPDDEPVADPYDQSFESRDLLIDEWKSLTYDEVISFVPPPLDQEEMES

Compound	IC50 (human p38 kinase alpha; [1]) [nM]	inhibition at 1 µM (TNF-α) [%]	also measured
CS(=O)(=O)c1ccccc1S(=O)(=O)NCc1[nH]nc(-c2ccc(F)cc2)c1-c1ccncc1 [Example B-0261]	490	23	
CN(C)CCn1cc(-c2ccnc(NCc3ccc(F)cc3)c2)c(-c2ccc(F)cc2)n1 [Example A-274, 4-[1-[2-(dimethylamino)ethyl]-3-(4-fluorophenyl)-1H-pyrazol-4-yl]-N-[(4-fluorophenyl)methyl]-2-pyridinamine]			IC50 (human p38 kinase alpha; [2]): < 100 nM; IC50 (TNF-α; [3]): 920 nM
O=C(NCc1[nH]nc(-c2ccc(F)cc2)c1-c1ccncc1)c1cccc(C(F)(F)F)c1 [Example B-0270]	5790	13	
CC(NC(=O)Cc1cccs1)c1[nH]nc(-c2ccc(F)cc2)c1-c1ccncc1 (stereo not shown) [Example B-0600]	2		U937 Cell % inhib @ conc. (TNF-α): 28.0% @ 1.0 uM
O=C(NCc1[nH]nc(-c2ccc(F)cc2)c1-c1ccncc1)c1ccc(F)c(F)c1 [Example B-0276]	1250	26	
O=C(NCc1[nH]nc(-c2ccc(F)cc2)c1-c1ccncc1)N[C@@H]1C[C@@H]1c1ccccc1 [Example B-0153]		21	inhibition at 1 µM (human p38 kinase alpha): 57%
O=C(NCc1[nH]nc(-c2ccc(F)cc2)c1-c1ccncc1)c1ccccc1Cl [Example B-0289]	150	55	
C[C@@H](NC(=O)c1c(F)cccc1F)c1[nH]nc(-c2ccc(F)cc2)c1-c1ccncc1 [Example B-0523]	190	83	
CCCCOc1ccc(S(=O)(=O)N[C@H](C)c2[nH]nc(-c3ccc(F)cc3)c2-c2ccncc2)cc1 [Example B-0456]	1810	67	
CCOC(=O)c1ccc(NC(=O)NCc2[nH]nc(-c3ccc(F)cc3)c2-c2ccncc2)cc1 [Example B-0161]		13	inhibition at 10 µM (human p38 kinase alpha; @ 10.0 uM): 72%
O=C(NCc1[nH]nc(-c2ccc(F)cc2)c1-c1ccncc1)c1c(F)cccc1C(F)(F)F [Example B-0284]	83	65	
CN(C)S(=O)(=O)NCc1[nH]nc(-c2ccc(F)cc2)c1-c1ccncc1 [Example B-0264]	140	18	
Cc1ccc(C(=O)NC(C)c2[nH]nc(-c3ccc(F)cc3)c2-c2ccncc2)cc1 (stereo not shown) [Example B-0671]	6380		U937 Cell % inhib @ conc. (TNF-α): 36.0% @ 1.0 uM
C[C@@H](NC(=O)C(C)(C)C)c1[nH]nc(-c2ccc(F)cc2)c1-c1ccncc1 [Example B-0424]	83	32	
CNC(=O)NCc1[nH]nc(-c2ccc(F)cc2)c1-c1ccncc1 [Example B-0211]	250	30	
O=C(NCc1[nH]nc(-c2ccc(F)cc2)c1-c1ccncc1)c1cc(F)cc(C(F)(F)F)c1 [Example B-0288]	4460	26	
CCCCCc1ccc(NC(=O)NCc2[nH]nc(-c3ccc(F)cc3)c2-c2ccncc2)cc1 [Example B-0156]			P38 alpha kinase % inhib @ conc. (human p38 kinase alpha; @ 10.0 uM): 42.0% @ 10.0 uM; U937 Cell % inhib @ conc. (TNF-α): 13.0% @ 1.0 uM
C[C@@H](NC(=O)c1cccc(Cl)c1Cl)c1[nH]nc(-c2ccc(F)cc2)c1-c1ccncc1 [Example B-0504]	400	43	
C[C@@H](NC(=O)Cc1cccs1)c1[nH]nc(-c2ccc(F)cc2)c1-c1ccncc1 [Example B-0423]	180	33	
CCCNC(=O)NCc1[nH]nc(-c2ccc(F)cc2)c1-c1ccncc1 [Example B-0213]	310	39	
C[C@@H](NC(=O)c1cccc(F)c1)c1[nH]nc(-c2ccc(F)cc2)c1-c1ccncc1 [Example B-0517]	94	52	
O=S(=O)(NCc1[nH]nc(-c2ccc(F)cc2)c1-c1ccncc1)c1ccc(F)cc1Cl [Example B-0231]	55	40	
O=S(=O)(NCc1[nH]nc(-c2ccc(F)cc2)c1-c1ccncc1)c1cccc(Br)c1 [Example B-0235]	1310	90	
O=C(NCc1[nH]nc(-c2ccc(F)cc2)c1-c1ccncc1)C(F)(F)F [Example B-0210]	57	67	
O=C(NCc1[nH]nc(-c2ccc(F)cc2)c1-c1ccncc1)c1cccc(OC(F)(F)F)c1 [Example B-0060]		22	inhibition at 1 µM (human p38 kinase alpha): 73%

Compound	IC50 (human p38 kinase alpha; [1]) [nM]	inhibition at 1 µM (TNF-α) [%]	also measured
COC(=O)CCC(=O)NCc1[nH]nc(-c2ccc(F)cc2)c1-c1ccncc1 [Example B-0077]	800		IC50 (TNF-α; [4]): 10000 nM
CC(=O)O[C@@H](C)C(=O)NCc1[nH]nc(-c2ccc(F)cc2)c1-c1ccncc1 [Example B-0083]	220		IC50 (TNF-α; [4]): 6510 nM
Cn1cnc(S(=O)(=O)NCc2[nH]nc(-c3ccc(F)cc3)c2-c2ccncc2)c1 [Example B-0266]	250	24	
C[C@@H](NC(=O)c1c(F)cccc1C(F)(F)F)c1[nH]nc(-c2ccc(F)cc2)c1-c1ccncc1 [Example B-0509]	100	86	
Cc1cc(C)c(NC(=O)NCc2[nH]nc(-c3ccc(F)cc3)c2-c2ccncc2)c(C)c1 [Example B-0186]		25	inhibition at 1 µM (human p38 kinase alpha): 40%
CCCCCCCCS(=O)(=O)NCc1[nH]nc(-c2ccc(F)cc2)c1-c1ccncc1 [Example B-0142]		12	inhibition at 1 µM (human p38 kinase alpha): 86%
CCOC(=O)C(CC(C)C)NC(=O)NCc1[nH]nc(-c2ccc(F)cc2)c1-c1ccncc1 (stereo not shown) [Example B-0189]		9	inhibition at 10 µM (human p38 kinase alpha; @ 10.0 uM): 42%
C[C@@H](NS(=O)(=O)c1ccc(S(=O)(=O)c2ccccc2)s1)c1[nH]nc(-c2ccc(F)cc2)c1-c1ccncc1 [Example B-0488]	620	88	
CC(=O)OC(C)(C)C(=O)N[C@H](C)c1[nH]nc(-c2ccc(F)cc2)c1-c1ccncc1 [Example B-0358]	370	17	
C[C@@H](NS(=O)(=O)c1ccccc1C(F)(F)F)c1[nH]nc(-c2ccc(F)cc2)c1-c1ccncc1 [Example B-0458]	33	70	
O=C(CCc1ccccc1)NCc1[nH]nc(-c2ccc(F)cc2)c1-c1ccncc1 [Example B-0076]		21	inhibition at 1 µM (human p38 kinase alpha): 58%
CC(NC(=O)c1cc(F)cc(C(F)(F)F)c1)c1[nH]nc(-c2ccc(F)cc2)c1-c1ccncc1 (stereo not shown) [Example B-0690]	27100		U937 Cell % inhib @ conc. (TNF-α): 36.0% @ 1.0 uM
Fc1ccc(-c2n[nH]c(NCCCN3CCOCC3)c2-c2ccncc2)cc1 [Example A-286, N-[5-(4-fluorophenyl)-4-(4-pyridinyl)-1H-pyrazol-3-yl]-4-morpholinepropanamine]			IC50 (human p38 kinase alpha; [2]): 57 nM; IC50 (TNF-α; [3]): 90 nM
CC(NS(=O)(=O)CC12CCC(CC1=O)C2(C)C)c1[nH]nc(-c2ccc(F)cc2)c1-c1ccncc1 (stereo not shown) [Example B-0434]	120	65	
C[C@@H](NC(=O)Nc1ccc(F)cc1)c1[nH]nc(-c2ccc(F)cc2)c1-c1ccncc1 [Example B-0406]	540	35	
COc1ccc(S(=O)(=O)NCc2[nH]nc(-c3ccc(F)cc3)c2-c2ccncc2)c([N+](=O)[O-])c1 [Example B-0141]		10	inhibition at 1 µM (human p38 kinase alpha): 78%
O=C(NCc1[nH]nc(-c2ccc(F)cc2)c1-c1ccncc1)c1ccc(F)cc1C(F)(F)F [Example B-0286]	330	50	
O=S(=O)(NCc1[nH]nc(-c2ccc(F)cc2)c1-c1ccncc1)c1ccc(F)cc1F [Example B-0134]			inhibition at 1 µM (human p38 kinase alpha): 60%; IC50 (TNF-α; [4]): 2170 nM
C[C@@H](NS(=O)(=O)c1cccc(C(F)(F)F)c1)c1[nH]nc(-c2ccc(F)cc2)c1-c1ccncc1 [Example B-0471]	27	97	
COC(=O)NCc1[nH]nc(-c2ccc(F)cc2)c1-c1ccncc1 [Example B-0207]	120	52	
CC(=O)O[C@@H](C)C(=O)N[C@H](C)c1[nH]nc(-c2ccc(F)cc2)c1-c1ccncc1 [Example B-0365]	960	27	
O=C(NCc1[nH]nc(-c2ccc(F)cc2)c1-c1ccncc1)Nc1ccccc1OC(F)(F)F [Example B-0185]		25	inhibition at 10 µM (human p38 kinase alpha; @ 10.0 uM): 65%
C[C@@H](NC(=O)c1c(Cl)cccc1Cl)c1[nH]nc(-c2ccc(F)cc2)c1-c1ccncc1 [Example B-0519]	43	87	
Cc1ccc(S(=O)(=O)NCc2[nH]nc(-c3ccc(F)cc3)c2-c2ccncc2)cc1 [Example B-0118]	1180		IC50 (TNF-α; [4]): 1290 nM
Cc1onc(-c2c(F)cccc2Cl)c1C(=O)NCc1[nH]nc(-c2ccc(F)cc2)c1-c1ccncc1 [Example B-0055]			inhibition at 1 µM (human p38 kinase alpha): 93%; IC50 (TNF-α; [4]): > 1000 nM

From patent US6525059B1, “Substituted pyrazoles as p38 kinase inhibitors” (G. D. Searle & Company, priority 1998, dated 2003)
